In patent EP4813980A1, “EP300/CBP REGULATOR, AND PREPARATION METHOD THEREFOR AND USE THEREOF” (Miracure Biotechnology Limited, priority 2023, dated 2025):
pIC50: −log10 of the molar value.

Assays:
22RV1 cells = assay: Cell growth inhibition, CellTiter-Glo, 72 h; type: cell-based; details: 72 h culture, mean of N=2
Method: (§1) 22RV1, vCap, MM1S and OPM-2 cells were cultured in RPMI-1640 medium (10% fetal bovine serum and 100 units of penicillin/streptomycin dual-antibody per mL were added to RPMI-1640) in a cell incubator at 37°C with 5% CO2, respectively. Cells in logarithmic growth phase were seeded into 96-well cell culture plates at 5×10^3 cells/100 µL/well and cultured overnight. Active compounds dissolved in DMSO at different concentrations were added with a final concentration of 0.5% DMSO. 1% Tween 20 was used as positive control and 0.5% DMSO was used as negative control. After 72 h of culture, an equal volume of CellTiter-Glo was added to each well, mixed by shaking for 2 min, and left standing at room temperature for 10 min. […] signal values were read with a microplate reader. Data were analyzed and graphs were generated using Prism 7.0. The values shown are mean ± SEM (N=2). […] The formula for inhibition rate is as follows: % Inhibition = (Icompound−IZPE)/(IHPE−IZPE) × 100 [formula]
(§2) The X-axis is compound concentration (nM), and the Y-axis is % Inhibition.

vCap cells = assay: Cell growth inhibition, CellTiter-Glo, 72 h; type: cell-based; details: 72 h culture, mean of N=2
Method: as §1, §2

Row | Compound | pIC50 (22RV1 cells) | pIC50 (vCap cells) | pIC50 (22RV1 cells; Homo sapiens) | pIC50 (vCap cells; Homo sapiens)
1 | 3-{5-[8-(4-{2-acetyl-7-[7-(difluoromethyl)-6-(1-methylpyrazol-4-yl)-3,4-dihydro-2H-quinolin-1-yl]-1,3-dihydroisoindol-5-yl}piperidin-1-yl)-8-oxo-1-yn-1-yl]-3-methyl-2-oxo-1,3-benzodiazol-1-yl}piperidine-2,6-dione [Compound 2030] | 9.47 | 10.00 | – | –
2 | C=CC(=O)N1CCC(c2cc3c(c(N4CCCc5cc(-c6cnn(C)c6)c(C(F)F)cc54)c2)CN(C(=O)NC)CC3)CC1 [Compound 1346, 6-(1-acryloylpiperidin-4-yl)-8-(7-(difluoromethyl)-6-(1-methyl-1H-pyrazol-4-yl)-3,4-dihydroquinolin-1(2H)-yl)-N-methyl-3,4-dihydroisoquinoline-2(1H)-carboxamide] | – | – | 4.09 | –
3 | C=CS(=O)(=O)N[C@H]1CC[C@H](n2c([C@@H]3CCCC(=O)N3c3ccc(F)c(F)c3)nc3cc(-c4c(C)noc4C)ccc32)CC1 [Compound 1370] | – | – | 5.79 | –
4 | C=CC(=O)NC1CCC(n2c([C@@H]3CCCC(=O)N3c3ccc(F)c(F)c3)nc3cc(-c4c(C)noc4C)ccc32)CC1 (some centres unmarked) [Compound 1371] | 5.68 | – | – | –
5 | CC#CC(=O)N1CCC(n2nc(N3CCCc4cc(-c5cnn(C)c5)c(C(F)F)cc43)c3c2CCN(C(=O)NC)C3)CC1 [Compound 1376] | – | – | 5.58 | –
6 | CC(=O)N1Cc2cc(C3CCC(N4C(=O)C=CC4=O)CC3)cc(N3CCCc4cc(-c5cnn(C)c5)c(C(F)F)cc43)c2C1 (centres unmarked) [Compound 1385, 1-(4-{2-acetyl-7-[7-(difluoromethyl)-6-(1-methylpyrazol-4-yl)-3,4-dihydro-2H-quinolin-1-yl]-1,3-dihydroisoindol-5-yl}cyclohexyl)pyrrole-2,5-dione] | – | – | 6.45 | 6.84
7 | CC(=O)N1Cc2cc(C3CCN(CCN4CCOC(CNc5cccc6c5C(=O)N(C5CCC(=O)NC5=O)C6=O)C4)CC3)cc(N3CCCc4cc(-c5cnn(C)c5)c(C(F)F)cc43)c2C1 (centres unmarked) [Compound 2001] | – | – | 10.22 | 9.81
8 | CC(=O)N1Cc2cc(C3CCN(Cc4ccc(CCOc5cccc6c5CN(C5CCC(=O)NC5=O)C6=O)cc4)CC3)cc(N3CCCc4cc(-c5cnn(C)c5)c(C(F)F)cc43)c2C1 (centres unmarked) [Compound 2003] | – | – | 9.16 | 9.72
9 | CC(=O)n1cc2cc(C3CCN(C(=O)CCCCCCCNc4ccc5c(c4)n(C)c(=O)n5C4CCC(=O)NC4=O)CC3)cc(N3CCCc4cc(-c5cnn(C)c5)c(C(F)F)cc43)c2c1 (centres unmarked) [Compound 2004, 3-[5-[[8-[4-[2-acetyl-7-[7-(difluoromethyl)-6-(1-methylpyrazol-4-yl)-3,4-dihydro-2H-quinolin-1-yl]isoindol-5-yl]piperidin-1-yl]-8-oxooctyl]amino]-3-methyl-2-oxobenzoimidazol-1-yl]piperidine-2,6-dione] | – | – | 10.52 | 9.92
10 | CC(=O)N1Cc2cc(C3CCN(CCN4CCC(CCc5cccc6c5C(=O)N(C5CCC(=O)NC5=O)C6=O)CC4)CC3)cc(N3CCCc4cc(-c5cnn(C)c5)c(C(F)F)cc43)c2C1 (centres unmarked) [Compound 2005] | – | – | 8.11 | –
11 | CC(=O)N1Cc2cc(C3CCN(C(=O)CCCCCCNc4cccc5c4n(C)c(=O)n5C4CCC(=O)NC4=O)CC3)cc(N3CCCc4cc(-c5cnn(C)c5)c(C(F)F)cc43)c2C1 (centres unmarked) [Compound 2007] | – | – | 10.40 | 11.00
12 | CC(=O)N1Cc2cc(C3CCN(C(=O)CCCCCCCCNc4ccc5c(c4)n(C)c(=O)n5C4CCC(=O)NC4=O)CC3)cc(N3CCCc4cc(-c5cnn(C)c5)c(C(F)F)cc43)c2C1 (centres unmarked) [Compound 2009] | – | – | 10.40 | 11.00
13 | CNC(=O)N1CCc2cc(C3CCN(CCN4CCOC(CNc5cccc6c5C(=O)N(C5CCC(=O)NC5=O)C6=O)C4)CC3)cc(N3CCCc4cc(-c5cnn(C)c5)c(C(F)F)cc43)c2C1 (centres unmarked) [Compound 2010] | – | – | 10.10 | 9.71
14 | CNC(=O)N1CCc2cc(C3CCN(Cc4ccc(CCOc5cccc6c5CN(C5CCC(=O)NC5=O)C6=O)cc4)CC3)cc(N3CCCc4cc(-c5cnn(C)c5)c(C(F)F)cc43)c2C1 (centres unmarked) [Compound 2012] | – | – | 9.21 | 8.64
15 | CNC(=O)N1CCc2cc(C3CCN(C(=O)CCCCCCCNc4ccc5c(c4)n(C)c(=O)n5C4CCC(=O)NC4=O)CC3)cc(N3CCCc4cc(-c5cnn(C)c5)c(C(F)F)cc43)c2C1 (centres unmarked) [Compound 2013] | – | – | 11.00 | 9.35
16 | CNC(=O)N1CCc2cc(C3CCN(CCN4CCC(CCc5cccc6c5C(=O)N(C5CCC(=O)NC5=O)C6=O)CC4)CC3)cc(N3CCCc4cc(-c5cnn(C)c5)c(C(F)F)cc43)c2C1 (centres unmarked) [Compound 2014, 8-(7-(difluoromethyl)-6-(1-methylpyrazol-4-yl)-3,4-dihydro-2H-quinolin-1-yl)-6-[1-[2-[4-[2-[2-(2,6-dioxo-3-piperidinyl)-1,3-dioxoisoindolin-4-yl]ethyl]-1-piperidinyl]ethyl]-4-piperidinyl]-N-methyl-3,4-dihydro-1H-isoquinoline-2-carboxamide] | – | – | – | 7.96
17 | CNC(=O)N1CCc2cc(C3CCN(Cc4ccc(COc5cccc6c5CN(C5CCC(=O)NC5=O)C6=O)cc4)CC3)cc(N3CCCc4cc(-c5cnn(C)c5)c(C(F)F)cc43)c2C1 (centres unmarked) [Compound 2015, 8-(7-(difluoromethyl)-6-(1-methyl-1H-pyrazol-4-yl)-3,4-dihydroquinolin-1(2H)-yl)-6-(1-(4-(((2-(2,6-dioxopiperidin-3-yl)-1-oxoisoindolin-4-yl)oxy)methyl)benzyl)piperidin-4-yl)-N-methyl-3,4-dihydroisoquinoline-2(1H)-carboxamide] | – | – | 10.30 | 11.00
18 | CNC(=O)N1CCc2cc(C3CCN(C(=O)CCCCCCNc4cccc5c4n(C)c(=O)n5C4CCC(=O)NC4=O)CC3)cc(N3CCCc4cc(-c5cnn(C)c5)c(C(F)F)cc43)c2C1 (centres unmarked) [Compound 2016, 8-[7-(difluoromethyl)-6-(1-methylpyrazol-4-yl)-3,4-dihydro-2H-quinolin-1-yl)-6-[1-[7-[[1-(2,6-dioxo-3-piperidinyl)-3-methyl-2-oxobenzoimidazol-4-yl]amino]heptanoyl]-4-piperidinyl]-N-methyl-3,4-dihydro-1H-isoquinoline-2-carboxamide] | – | – | 11.00 | > 11.30
19 | CNC(=O)N1Cc2cc(C3CCN(C(=O)CCOCCOCCOCCOCCNc4ccc5c(c4)C(=O)N(C4CCC(=O)NC4=O)C5=O)CC3)cc(N3CCCc4cc(-c5cnn(C)c5)c(C(F)F)cc43)c2C1 (centres unmarked) [Compound 2023] | – | – | 6.36 | –
20 | COC(=O)N1CCc2cc(C3CCN(C(=O)CCCCCCCNc4ccc5c(c4)C(=O)N(C4CCC(=O)NC4=O)C5=O)CC3)cc(N3CCCc4cc(-c5cnn(C)c5)c(C(F)F)cc43)c2C1 (centres unmarked) [Compound 2026, methyl 8-[7-(difluoromethyl)-6-(1-methylpyrazol-4-yl)-3,4-dihydro-2H-quinolin-1-yl]-6-[1-[8-[[2-(2,6-dioxo-3-piperidinyl)-1,3-dioxoisoindolin-5-yl]amino]octanoyl]-4-piperidinyl]-3,4-dihydro-1H-isoquinoline-2-carboxylate] | – | – | 7.65 | –
21 | CC(=O)N1Cc2cc(C3CCN(Cc4ccc(CCOc5cccc6c5CN(C5CCC(=O)NC5=O)C6=O)nc4)CC3)cc(N3CCCc4cc(-c5cnn(C)c5)c(C(F)F)cc43)c2C1 (centres unmarked) [Compound 2035, 3-[4-(2-{5-[(4-{2-acetyl-7-[7-(difluoromethyl)-6-(1-methylpyrazol-4-yl)-3,4-dihydro-2H-quinolin-1-yl]-1,3-dihydroisoindol-5-yl}piperidin-1-yl)methyl]pyridin-2-yl}ethoxy)-1-oxo-3H-isoindol-2-yl]piperidine-2,6-dione] | – | – | 8.59 | –
22 | CC(=O)N1Cc2cc(C3CCN(C(=O)Cn4cc(COc5cccc6c5CN(C5CCC(=O)NC5=O)C6=O)nn4)CC3)cc(N3CCCc4cc(-c5cnn(C)c5)c(C(F)F)cc43)c2C1 (centres unmarked) [Compound 2046] | – | – | 7.85 | –
23 | CC(=O)N1Cc2cc(C3CCN(CC4CCN(c5cccc6c5CN(C5CCC(=O)NC5=O)C6=O)CC4)CC3)cc(N3CCCc4cc(-c5cnn(C)c5)c(C(F)F)cc43)c2C1 (centres unmarked) [Compound 2047] | – | – | < 5.00 | –
24 | CC(=O)N1Cc2cc(C3CCN(C(=O)CN4Cc5cc6c(cc5C4)C(=O)N(C4CCC(=O)NC4=O)C6=O)CC3)cc(N3CCCc4cc(-c5cnn(C)c5)c(C(F)F)cc43)c2C1 (centres unmarked) [Compound 2050] | – | – | 8.28 | –
25 | CC(=O)N1Cc2cc(C3CCN(CCN4Cc5cc6c(cc5C4)C(=O)N(C4CCC(=O)NC4=O)C6=O)CC3)cc(N3CCCc4cc(-c5cnn(C)c5)c(C(F)F)cc43)c2C1 (centres unmarked) [Compound 2059] | – | – | 8.03 | –
26 | CC(=O)N1Cc2cc(C3CCN(CC4CCN(CCNc5cccc6c5CN(C5CCC(=O)NC5=O)C6=O)CC4)CC3)cc(N3CCCc4cc(-c5cnn(C)c5)c(C(F)F)cc43)c2C1 (centres unmarked) [Compound 2060] | – | – | 8.17 | –
27 | CC(=O)N1Cc2cc(C3CCN(CCN4CCC(CNc5cccc6c5CN(C5CCC(=O)NC5=O)C6=O)CC4)CC3)cc(N3CCCc4cc(-c5cnn(C)c5)c(C(F)F)cc43)c2C1 (centres unmarked) [Compound 2061] | – | – | 8.46 | –
28 | CC(=O)N1Cc2cc(C3CCN(CC4CCN(CCOc5ccc(N6CCC(=O)NC6=O)cc5)CC4)CC3)cc(N3CCCc4cc(-c5cnn(C)c5)c(C(F)F)cc43)c2C1 [Compound 2072] | – | – | 5.69 | –
29 | CC(=O)N1Cc2cc(C3CCC(N(C)C4CCN(c5ccc6c(c5)CN(C5CCC(=O)NC5=O)C6=O)CC4)CC3)cc(N3CCCc4cc(-c5cnn(C)c5)c(C(F)F)cc43)c2C1 (centres unmarked) [Compound 2079, 3-(5-((4-((2-acetyl-7-(7-(difluoromethyl)-6-(1-methyl-1H-pyrazol-4-yl)-3,4-dihydroquinolin-1(2H)-yl)isoindolin-5-yl)cyclohexyl)(methyl)amino)piperidin-1-yl)-1-oxoisoindolin-2-yl)piperidine-2,6-dione] | – | – | 8.42 | –
